ChEMBL document CHEMBL2434906, “Synthesis, characterization, and anticancer studies of S and N alkyl piperazine-substituted positional isomers of 1,2,4-triazole derivatives” (Med Chem Res, 2013)

Tests used:
Format in all cases: functional, cell-based
COLO 205 = test: Cytotoxicity against human COLO205 cells after 24 hrs by MTT assay; conditions: COLO 205, 24 h
HL-60 = test: Cytotoxicity against human HL60 cells after 24 hrs by MTT assay; conditions: HL-60, 24 h
MCF7 = test: Cytotoxicity against human MCF7 cells after 24 hrs by MTT assay; conditions: MCF7, 24 h
THP-1 = test: Cytotoxicity against human THP1 cells after 24 hrs by MTT assay; conditions: THP-1, 24 h
U-937 = test: Cytotoxicity against human U937 cells after 24 hrs by MTT assay; conditions: U-937, 24 h

Structure (SMILES) | IC50 (COLO 205) [µM] | IC50 (HL-60) [µM] | IC50 (MCF7) [µM] | IC50 (THP-1) [µM] | IC50 (U-937) [µM]
CC(C)(C)c1ccc(-c2nn(CCCN3CCN(c4cccc(Cl)c4)CC3)c(=S)[nH]2)cc1 | > 300 | > 300 | > 300 | > 300 | > 300
Cc1ccc(-c2nn(CCCN3CCN(c4cccc(Cl)c4)CC3)c(=S)[nH]2)cc1 | > 300 | > 300 | > 300 | > 300 | > 300
COc1ccc(-c2nn(CCCN3CCOCC3)c(=S)[nH]2)cc1OC | > 300 | > 300 | > 300 | > 300 | > 300
CCN1CCN(CCCn2nc(-c3ccc(OC)c(OC)c3)[nH]c2=S)CC1 | > 300 | > 300 | > 300 | > 300 | > 300
CCN1CCN(CCCSc2nnc(-c3ccc(C)cc3)[nH]2)CC1 | > 300 | > 300 | > 300 | > 300 | > 300
Clc1ccc(-c2nnc(SCCCN3CCN(c4cccc(Cl)c4)CC3)[nH]2)cc1 | > 300 | > 300 | > 300 | > 300 | > 300
CCN1CCN(CCCSc2nnc(-c3ccccc3Cl)[nH]2)CC1 | > 300 | > 300 | > 300 | > 300 | > 300
Clc1ccccc1-c1nnc(SCCCN2CCN(c3ccccn3)CC2)[nH]1 | > 300 | > 300 | > 300 | > 300 | > 300
COc1ccc(-c2nn(CCCN3CCN(c4ccccn4)CC3)c(=S)[nH]2)cc1 | > 300 | 115 | > 300 | > 300 | > 300
Fc1ccc(-c2nn(CCCN3CCN(Cc4ccccc4)CC3)c(=S)[nH]2)cc1 | 111 | > 300 | 128 | 160 | > 300
S=c1[nH]c(-c2ccc(Cl)cc2)nn1CCCN1CCN(c2cccc(Cl)c2)CC1 | > 300 | 6.67 | > 300 | > 300 | 28.2
CC(C)(C)c1ccc(-c2nn(CCCN3CCN(c4ccccc4)CC3)c(=S)[nH]2)cc1 | > 300 | > 300 | > 300 | 147 | 88.9
c1ccc(Cc2nnc(SCCCN3CCN(c4ccccn4)CC3)[nH]2)cc1 | > 300 | > 300 | > 300 | > 300 | 163
Clc1cccc(-c2nnc(SCCCN3CCN(c4ncccn4)CC3)[nH]2)c1 | > 300 | 18.5 | > 300 | > 300 | 49.1
Cc1cccc(-c2nnc(SCCCN3CCN(c4ccccn4)CC3)[nH]2)c1 | > 300 | 29.4 | > 300 | > 300 | 52.3
Cc1cccc(-c2nnc(SCCCN3CCN(c4ccccc4)CC3)[nH]2)c1 | > 300 | > 300 | > 300 | 248 | > 300
Fc1ccc(-c2nnc(SCCCN3CCN(Cc4ccccc4)CC3)[nH]2)cc1 | 181 | > 300 | 184 | 255 | 124
Clc1ccc(-c2nnc(SCCCN3CCN(c4ncccn4)CC3)[nH]2)cc1 | > 300 | 105 | > 300 | > 300 | 102
Cc1ccc(-c2nnc(SCCCN3CCN(c4cccc(Cl)c4)CC3)[nH]2)cc1 | 139 | > 300 | > 300 | > 300 | 257
CC(C)(C)c1ccc(-c2nnc(SCCCN3CCN(c4ccccc4)CC3)[nH]2)cc1 | > 300 | > 300 | > 300 | 97.6 | 49.3
CC(C)(C)c1ccc(-c2nnc(SCCCN3CCOCC3)[nH]2)cc1 | 155 | > 300 | 287 | > 300 | 156
COc1cc([C@@H]2c3cc4c(cc3[C@@H](O[C@@H]3O[C@@H]5CO[C@@H](C)O[C@H]5[C@H](O)[C@H]3O)[C@H]3COC(=O)[C@H]23)OCO4)cc(OC)c1O [ETOPOSIDE] |  | 1.84 | 29.5 |  | 10.4
